The text below walks through data of patent publication US20230141887A1, “CRYSTAL FORM OF DIAZASPIROPYRAN COMPOUND” (MEDSHINE DISCOVERY INC., priority 2020, published 2023).

One data set has as its target T1, AXL (Homo sapiens, UniProt P30530).
T1 construct: purchased Promega
T1 sequence (P30530 26-894): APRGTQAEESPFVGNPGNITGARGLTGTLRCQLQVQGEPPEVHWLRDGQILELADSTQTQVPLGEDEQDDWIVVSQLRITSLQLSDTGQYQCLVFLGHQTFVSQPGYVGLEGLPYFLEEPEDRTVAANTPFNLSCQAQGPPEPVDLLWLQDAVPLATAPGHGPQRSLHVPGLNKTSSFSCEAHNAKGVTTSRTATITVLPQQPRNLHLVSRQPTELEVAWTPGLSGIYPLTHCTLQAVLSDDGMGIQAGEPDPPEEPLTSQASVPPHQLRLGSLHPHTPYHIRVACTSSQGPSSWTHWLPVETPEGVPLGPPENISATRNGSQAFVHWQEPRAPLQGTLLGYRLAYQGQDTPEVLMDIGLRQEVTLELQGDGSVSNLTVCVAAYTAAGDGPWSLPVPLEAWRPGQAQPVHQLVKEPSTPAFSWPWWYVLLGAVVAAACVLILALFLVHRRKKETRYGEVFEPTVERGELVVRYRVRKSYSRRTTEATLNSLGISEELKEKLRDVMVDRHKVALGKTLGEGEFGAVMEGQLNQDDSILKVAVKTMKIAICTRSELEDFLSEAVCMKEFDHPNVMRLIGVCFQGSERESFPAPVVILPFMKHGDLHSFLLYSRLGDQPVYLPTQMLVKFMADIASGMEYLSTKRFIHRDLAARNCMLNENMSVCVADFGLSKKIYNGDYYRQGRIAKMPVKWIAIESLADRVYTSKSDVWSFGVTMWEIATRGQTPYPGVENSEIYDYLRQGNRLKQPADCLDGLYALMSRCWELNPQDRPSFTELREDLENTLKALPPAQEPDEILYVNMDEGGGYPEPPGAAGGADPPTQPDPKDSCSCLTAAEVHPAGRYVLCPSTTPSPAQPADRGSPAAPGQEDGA
In words: Assay of AXL inhibitory activity in vitro (Promega AXL Kinase Enzyme System, ADP-Glo). It is filed as biochemical. To be noted: 50 μmol/L ATP, 30° C., 60 minutes. How it is done: AXL Kinase Enzyme System (kinase system) was purchased from Promega. Envision multi-label Analyzer (PerkinElmer).
The enzyme, substrate, ATP and inhibitors were diluted using the buffer solution in the kit.
The assay was carried out in duplicate. 1 μl of the inhibitors of each concentration gradient, 2 μl of the AXL enzyme (6 ng), and a 2 μl mixture of the substrate and ATP (50 μmol/L ATP, 0.2 μg/μL Axltide) were added to the microplate. […] After the reaction was completed, 5 μL of ADP-Glo reagent was added to each well. The system was further reacted at 30° C. for 40 minutes. After the reaction was completed, 10 μL of kinase detection reagent was added to each well and reacted at 30° C. for 30 minutes. The chemiluminescence was then read by the PerkinElmer Envision multi-label analyzer with an integration time of 0.5 seconds.
The original data was converted into an inhibition rate, and the IC50 value can be obtained by four-parameter curve fitting.
For orientation: ADP-Glo turns the ADP formed in a reaction into a luminescent signal.

In a further data set the target is T2, FLT3(ITD, D835V) (Homo sapiens, UniProt P36888, D835V, form not given).
T2 construct: fused on or other part: DNA tag for the qPCR read-out (the KINOMEscan format)
T2 sequence (P36888 1-993 D835V): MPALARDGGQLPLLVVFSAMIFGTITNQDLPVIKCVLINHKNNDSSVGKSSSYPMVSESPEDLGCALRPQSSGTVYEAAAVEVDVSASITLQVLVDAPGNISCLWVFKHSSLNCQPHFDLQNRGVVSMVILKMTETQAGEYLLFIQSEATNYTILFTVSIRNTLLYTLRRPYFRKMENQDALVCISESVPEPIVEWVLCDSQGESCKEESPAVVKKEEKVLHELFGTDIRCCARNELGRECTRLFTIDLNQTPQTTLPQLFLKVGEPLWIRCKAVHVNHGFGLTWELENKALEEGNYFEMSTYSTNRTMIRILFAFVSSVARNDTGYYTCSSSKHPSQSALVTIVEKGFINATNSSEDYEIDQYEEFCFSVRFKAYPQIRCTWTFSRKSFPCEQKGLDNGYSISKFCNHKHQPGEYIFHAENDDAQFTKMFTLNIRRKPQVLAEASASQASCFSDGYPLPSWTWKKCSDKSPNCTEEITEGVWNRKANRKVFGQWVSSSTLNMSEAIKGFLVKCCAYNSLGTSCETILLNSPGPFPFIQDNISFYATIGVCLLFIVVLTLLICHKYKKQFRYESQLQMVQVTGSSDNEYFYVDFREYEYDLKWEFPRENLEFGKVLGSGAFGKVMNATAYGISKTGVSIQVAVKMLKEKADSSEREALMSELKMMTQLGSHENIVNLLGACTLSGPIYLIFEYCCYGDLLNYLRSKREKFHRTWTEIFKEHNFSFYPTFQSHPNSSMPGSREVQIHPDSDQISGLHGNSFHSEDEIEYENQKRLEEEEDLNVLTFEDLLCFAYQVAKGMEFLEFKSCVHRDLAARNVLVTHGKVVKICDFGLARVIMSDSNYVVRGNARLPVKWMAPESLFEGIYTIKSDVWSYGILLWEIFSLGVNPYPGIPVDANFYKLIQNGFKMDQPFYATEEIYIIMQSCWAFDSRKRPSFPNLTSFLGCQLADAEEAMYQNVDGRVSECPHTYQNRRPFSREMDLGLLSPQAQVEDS
It is filed as binding.

The nature of data set [1]: In vivo pharmacokinetic assay in dogs. Also on record: species or system Male Beagle dogs. To be noted: 1 mg/kg. Here is the method:
Male Beagle dogs older than 6 months of age were selected. On the day of the assay, the animals were given the corresponding compound by single injection in the cephalic or saphenous vein in a volume of 1 mL/kg for the intravenous group; and by single gavage in a volume of 5 mL/kg for the oral group. The animals were weighed before administration and the dosing volume of the compound was calculated based on their body weight. About 0.5 mL of whole blood was collected from the cephalic or saphenous vein at each time point to prepare plasma for determination of concentrations by high performance liquid chromatography-tandem mass spectrometry (LC-MS/MS). Plasma concentrations were processed using non-compartment model of WinNonlin™ Version 6.3 or above (Pharsight, Mountain View, Calif.) pharmacokinetic software, and pharmacokinetic parameters were calculated using the linear log trapezoidal method.

`CCc1nc(C(N)=O)c(Nc2ccc(N3CCC4(CCN(C)CC4)CC3)c(C)c2)nc1NC1CCOCC1.O=C(O)C(F)(F)F` returned an IC50 against AXL of 1.22 nM. The Kd on FLT3(ITD, D835V) was found to be 0.2 nM. In data set [1] (Injection), this compound had an AUC0-last of 765 nm·h, a Cl of 34.2 mL/min/kg, a T1/2 of 9.83 h and a volume of distribution (Vdss) of 28.9 L/kg. In data set [1] (Oral), the Cmax was found to be 21.1 nM, the F% worked out at 41.6% and the Tmax is reported as 4.00 h.

For orientation: IC50 means the point on the concentration scale where inhibition reaches its midpoint. Read a high IC50 as a need for much substance. A word on the Kd: it is a measure of binding affinity in units of concentration. One may read the Vdss as a proportionality between amount in the body and measured concentration, not a real space. Low values mean little distribution into tissue, high ones wide distribution into tissue. As usually defined, the Cmax is the highest concentration seen after dosing. As a reminder, the Tmax is the time from dosing to the highest level.
